Measurements from patent publication US20090030064A1, “Sugar-coated preparation” (Takeda Pharmaceutical Company Limited, priority 2005, published 2009).

Assay: Reference Example 1: bulk powder left in air, residual ratio
Format: physicochemical
Details: 40° C. and 75% RH in the air, 1 month
Experimental: A bulk powder of Compound A and sodium ascorbate were respectively left to stand for 1 month at 40° C. and 75% RH in the air, and then residual ratios thereof were measured. As a result, the residual ratio of Compound A was 89.7% (W/W), and the residual ratio of sodium ascorbate was 99.0% (W/W). Quantification of Compound A was carried out by a HPLC method under the following conditions. Solvent: acetonitrile Measurement wavelength: 287 nm Column: CHIRALCEL OJ-R 4.6 mm×150 mm (manufactured by Daicel Chemical Industries, Ltd.) Mobile phase: mixed solution of acetonitrile/10 mM aqueous ammonium acetate solution (16:9) Oven temperature: around 25° C. Quantification of sodium ascorbate was carried out by an iodine titration technique (solvent: metaphosphoric acid solution (1→50), indicator: starch test solution).

SMILES	residual ratio
COc1cc2c(cc1OC)CN(c1c(C)c(C)c3c(c1C)[C@@H](c1ccc(C)cc1)C(C)(C)O3)C2 [Compound A, (R)-5,6-dimethoxy-2-[2,2,4,6,7-pentamethyl-3-(4-methylphenyl)-2,3-dihydro-1-benzofuran-5-yl]isoindoline]	89.7 % (W/W)
O=C1O[C@H]([C@@H](O)CO)C([O-])=C1O.[Na+] [sodium ascorbate]	99.0 % (W/W)
